Reference: the NIST ThermoML archive (doi:10.1016/j.jct.2015.02.024)
Numbers after ± are expanded uncertainties.

Assay: activity coefficient (dimensionless); of the first substance listed, at infinite dilution; xn = mol fraction of the nth substance listed
Conditions: 101 kPa, Liquid, Chromatography, x1 = 0

Structure (SMILES)	activity coefficient (318.15 K)	activity coefficient (328.15 K)	activity coefficient (338.15 K)	activity coefficient (348.15 K)	activity coefficient (358.15 K)	activity coefficient (368.15 K)	activity coefficient (298.15 K)	activity coefficient (308.15 K)
CCOC(C)=O [ethyl acetate] + C[N+]1(CCCO)CCOCC1.O=S(=O)([N-]S(=O)(=O)C(F)(F)F)C(F)(F)F	1.5 ± 0.1	1.56 ± 0.1	1.61 ± 0.11	1.66 ± 0.11	1.7 ± 0.11	1.77 ± 0.12		
COC(C)=O [methyl ethanoate] + C[N+]1(CCCO)CCOCC1.O=S(=O)([N-]S(=O)(=O)C(F)(F)F)C(F)(F)F	0.926 ± 0.059	0.971 ± 0.061	1.02 ± 0.06	1.06 ± 0.07	1.1 ± 0.07	1.14 ± 0.07		
CCCCCCC [heptane] + C[N+]1(CCCO)CCOCC1.O=S(=O)([N-]S(=O)(=O)C(F)(F)F)C(F)(F)F	223 ± 15	192 ± 13	162 ± 11	141 ± 10	116 ± 8	105 ± 7	345 ± 24	280 ± 19
C#CCCCCCC [1-octyne] + C[N+]1(CCCO)CCOCC1.O=S(=O)([N-]S(=O)(=O)C(F)(F)F)C(F)(F)F	33 ± 2.3	31.3 ± 2.1	29.6 ± 2	28 ± 1.9	26.7 ± 1.8	25.5 ± 1.7		
CCOC(C)(C)C [2-ethoxy-2-methylpropane] + C[N+]1(CCCO)CCOCC1.O=S(=O)([N-]S(=O)(=O)C(F)(F)F)C(F)(F)F	16.1 ± 1.1	15.8 ± 1.1	15.6 ± 1.1	15.2 ± 1	15 ± 1	14.8 ± 1		
c1ccncc1 [pyridine] + C[N+]1(CCCO)CCOCC1.O=S(=O)([N-]S(=O)(=O)C(F)(F)F)C(F)(F)F	0.414 ± 0.034	0.461 ± 0.036	0.501 ± 0.038	0.55 ± 0.04	0.593 ± 0.042	0.639 ± 0.044		
C#CCCCC [1-hexyne] + C[N+]1(CCCO)CCOCC1.O=S(=O)([N-]S(=O)(=O)C(F)(F)F)C(F)(F)F	12.5 ± 0.9	11.9 ± 0.8	11.6 ± 0.8	11.2 ± 0.8	10.7 ± 0.7	10.4 ± 0.7		
CCCC(C)=O [pentan-2-one] + C[N+]1(CCCO)CCOCC1.O=S(=O)([N-]S(=O)(=O)C(F)(F)F)C(F)(F)F	1.24 ± 0.08	1.29 ± 0.08	1.34 ± 0.09	1.4 ± 0.09	1.44 ± 0.09	1.48 ± 0.1		
C1CCCCCC1 [cycloheptane] + C[N+]1(CCCO)CCOCC1.O=S(=O)([N-]S(=O)(=O)C(F)(F)F)C(F)(F)F	82.8 ± 5.7	71 ± 4.9	62.6 ± 4.3	54.5 ± 3.7	47.2 ± 3.2	43 ± 2.9		
CC1CCCCC1 [methylcyclohexane] + C[N+]1(CCCO)CCOCC1.O=S(=O)([N-]S(=O)(=O)C(F)(F)F)C(F)(F)F	102 ± 7	84.7 ± 5.8	73.3 ± 5	64.4 ± 4.4	55 ± 3.8	49.1 ± 3.4		
CCO [ethanol] + C[N+]1(CCCO)CCOCC1.O=S(=O)([N-]S(=O)(=O)C(F)(F)F)C(F)(F)F	1.4 ± 0.09	1.37 ± 0.09	1.34 ± 0.09	1.3 ± 0.08	1.28 ± 0.08	1.25 ± 0.08		
C=Cc1ccccc1 [styrene] + C[N+]1(CCCO)CCOCC1.O=S(=O)([N-]S(=O)(=O)C(F)(F)F)C(F)(F)F	3.45 ± 0.23	3.51 ± 0.24	3.58 ± 0.24	3.66 ± 0.25	3.72 ± 0.25	3.78 ± 0.26		
C=CCCC [1-pentene] + C[N+]1(CCCO)CCOCC1.O=S(=O)([N-]S(=O)(=O)C(F)(F)F)C(F)(F)F	38.3 ± 2.6	30.6 ± 2.1					64.5 ± 4.4	49.4 ± 3.4
C=CCCCCCCCC [1-decene] + C[N+]1(CCCO)CCOCC1.O=S(=O)([N-]S(=O)(=O)C(F)(F)F)C(F)(F)F	307 ± 21	269 ± 18	243 ± 17	218 ± 15	194 ± 13	176 ± 12		
CC(C)(C)O [2-methylpropan-2-ol] + C[N+]1(CCCO)CCOCC1.O=S(=O)([N-]S(=O)(=O)C(F)(F)F)C(F)(F)F	2.09 ± 0.14	2.06 ± 0.14	2.03 ± 0.14	2 ± 0.14	1.97 ± 0.13	1.95 ± 0.13		
CC(C)O [propan-2-ol] + C[N+]1(CCCO)CCOCC1.O=S(=O)([N-]S(=O)(=O)C(F)(F)F)C(F)(F)F	1.83 ± 0.12	1.78 ± 0.12	1.74 ± 0.12	1.71 ± 0.11	1.67 ± 0.11	1.64 ± 0.11		
C1=CCCCC1 [cyclohexene] + C[N+]1(CCCO)CCOCC1.O=S(=O)([N-]S(=O)(=O)C(F)(F)F)C(F)(F)F	23.7 ± 1.6	21.6 ± 1.5	20.2 ± 1.4	18.6 ± 1.3	17.1 ± 1.2	16.2 ± 1.1		
C1CCOC1 [tetrahydrofuran] + C[N+]1(CCCO)CCOCC1.O=S(=O)([N-]S(=O)(=O)C(F)(F)F)C(F)(F)F	0.968 ± 0.061	1.03 ± 0.06	1.08 ± 0.07	1.12 ± 0.07	1.18 ± 0.08	1.23 ± 0.08		
CCCCCCCC [octane] + C[N+]1(CCCO)CCOCC1.O=S(=O)([N-]S(=O)(=O)C(F)(F)F)C(F)(F)F	315 ± 22	265 ± 18	230 ± 16	199 ± 14	172 ± 12	152 ± 10		
Cc1cccc(C)c1 [1,3-dimethylbenzene] + C[N+]1(CCCO)CCOCC1.O=S(=O)([N-]S(=O)(=O)C(F)(F)F)C(F)(F)F	6.44 ± 0.44	6.55 ± 0.45	6.64 ± 0.45	6.73 ± 0.46	6.85 ± 0.47	6.92 ± 0.47		
COC(C)(C)C [2-methoxy-2-methylpropane] + C[N+]1(CCCO)CCOCC1.O=S(=O)([N-]S(=O)(=O)C(F)(F)F)C(F)(F)F	4.94 ± 0.34	5.07 ± 0.35	5.22 ± 0.36	5.35 ± 0.36	5.45 ± 0.37	5.58 ± 0.38		
CC(C)CC(C)(C)C [2,2,4-trimethylpentane] + C[N+]1(CCCO)CCOCC1.O=S(=O)([N-]S(=O)(=O)C(F)(F)F)C(F)(F)F	272 ± 19	226 ± 16	191 ± 13	165 ± 11	140 ± 10	125 ± 9		
CCC(=O)CC [pentan-3-one] + C[N+]1(CCCO)CCOCC1.O=S(=O)([N-]S(=O)(=O)C(F)(F)F)C(F)(F)F	1.28 ± 0.08	1.33 ± 0.09	1.4 ± 0.09	1.45 ± 0.1	1.52 ± 0.1	1.57 ± 0.1		
